Measured values taken from US6261814A, “Carboxylic acid reductase, and methods of using same” (University of Iowa Research Foundation, priority 1998, dated 2001).

Key:
[1] = biological target: T1, carboxylic acid reductase (aryl aldehyde oxidoreductase) (Nocardia iowensis, UniProt Q6RKB1); experiment: Substrate specificity of crude carboxylic acid reductase (100,000×g supernatant); assay type: biochemical, Nocardia sp. NRRL 5646; parameters: Crude enzyme preparations consisting of 100,000×g supernatants were used in this study; endogenous in cells; host or cells: Nocardia sp; NRRL 5646, crude 100,000×g supernatant; conditions: for Relative Activity: 5 mM substrate, 0.15 mM NADPH, 1 mM ATP, 50 mM Tris-HCl pH 7.5, percentage of the initial rate of benzoate reduction; for quality as substrate of the enzyme (in words): substrates of Table 2
T1 sequence (Q6RKB1 whole entry): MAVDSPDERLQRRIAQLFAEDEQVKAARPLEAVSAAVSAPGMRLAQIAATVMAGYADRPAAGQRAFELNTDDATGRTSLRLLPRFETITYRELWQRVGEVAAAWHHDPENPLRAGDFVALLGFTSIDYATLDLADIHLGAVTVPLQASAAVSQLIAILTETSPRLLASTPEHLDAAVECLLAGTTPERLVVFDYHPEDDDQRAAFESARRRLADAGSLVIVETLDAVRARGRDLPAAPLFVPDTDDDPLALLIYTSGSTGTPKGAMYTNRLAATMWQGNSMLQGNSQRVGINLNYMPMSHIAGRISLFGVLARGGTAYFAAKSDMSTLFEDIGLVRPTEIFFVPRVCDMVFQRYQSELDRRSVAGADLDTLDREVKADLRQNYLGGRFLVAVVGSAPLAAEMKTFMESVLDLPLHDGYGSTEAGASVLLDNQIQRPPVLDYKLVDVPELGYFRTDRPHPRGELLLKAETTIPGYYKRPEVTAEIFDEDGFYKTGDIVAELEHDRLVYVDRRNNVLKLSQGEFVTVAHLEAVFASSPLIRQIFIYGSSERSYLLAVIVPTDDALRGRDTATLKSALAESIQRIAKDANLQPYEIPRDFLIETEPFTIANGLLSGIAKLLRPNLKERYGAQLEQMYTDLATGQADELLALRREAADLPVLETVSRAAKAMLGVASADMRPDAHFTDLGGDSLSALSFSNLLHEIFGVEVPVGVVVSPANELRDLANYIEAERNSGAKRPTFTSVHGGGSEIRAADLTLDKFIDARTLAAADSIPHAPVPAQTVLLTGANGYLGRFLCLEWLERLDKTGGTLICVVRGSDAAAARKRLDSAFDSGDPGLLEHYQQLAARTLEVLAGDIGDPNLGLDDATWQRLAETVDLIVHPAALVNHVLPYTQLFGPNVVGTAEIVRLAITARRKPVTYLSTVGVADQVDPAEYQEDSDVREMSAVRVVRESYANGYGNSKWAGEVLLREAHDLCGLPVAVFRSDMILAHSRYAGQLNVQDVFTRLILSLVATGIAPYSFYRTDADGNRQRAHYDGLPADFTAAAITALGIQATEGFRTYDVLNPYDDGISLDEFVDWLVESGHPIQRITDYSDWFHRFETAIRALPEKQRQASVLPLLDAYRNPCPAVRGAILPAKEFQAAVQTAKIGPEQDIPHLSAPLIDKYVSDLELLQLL
Experimental: (§1) Enzyme assay. The standard aryl-aldehyde oxidoreductase assay solution contained 0.15 mM […], 1 mM ATP, and 5 mM sodium benzoate, 10 mM MgCl2 and 0.01 to 0.3 units of enzyme in 50 mM Tris-HCl buffer in a final volume of 0.7 ml. The reference cuvette contained all components except for benzoate. Enzyme reactions were initiated by adding enzyme, and they were monitored by recording the absorption decrease at 340 nm at 25° C. with a Shimadzu 160 spectrophotometer.
Crude enzyme preparations consisting of 100,000×g supernatants were used in this study. […] The relative rate of reduction for each carboxylic acid derivative is expressed as the percentage of the initial rate of benzoate reduction.
The range of oxidoreductase activities of crude, 100,000×g Nocardia extract with a variety of substrates was investigated. Various substituted 2-, 3- and 4-substituted benzoates were examined, including a range of ring-activating and ring-deactivating functional groups. Benzoates substituted with halogens, methyl, methoxy, hydroxy, acetyl, nitro, benzoyl, phenyl, and phenoxyl groups as well as aryl-ring systems containing two (naphthalene) and three (fluorene) rings, and heterocyclic aromatic acids including furoic, nicotinic and indole carboxylic acids were considered. In addition, one cinnamic acid derivative, phenyl-acetate, phenyl-malonate, phenyl-succinate and 2-phenylpropionic acid were studied.

[2] = biological target: T1, carboxylic acid reductase (aryl aldehyde oxidoreductase); experiment: Kinetic properties of the purified carboxylic acid reductase (standard enzyme assay); conditions: for apparent Km relative to Km reported for the enzyme from Nocardia asteroides: higher than values reported by Kato et al.; for turn-over number: calculated assuming pure enzyme and one active site per molecule; for Vmax: mean of three determinations; for type of inhibition: versus benzoic acid
Experimental: as §1
Kinetic constants were obtained by fitting experimental data with the EZ-FIT program developed by Perrella (Perrella, Anal. Biochem. 174:437-447 (1987)).
S(+)-α-Methyl-4-[2-methylpropyl]-benzeneacetic acid (ibuprofen) was from Aldrich Chemical Co. R(-) isomer of ibuprofen was a gift from Dr. Ching-Shih Chen, University of Rhode Island (Chen et al., Biochim. Biophys. Acta 1033:1-6 (1990)). […] Substrate enantiopurities were checked by specific rotation determination for each isomer (Chen and Rosazza, Appl. Environ. Microbiol. 60(4):1292-1296 (1994)).

SMILES: O=C(O)c1cccc2ccccc12 [1-naphthoic acid]
- Relative Activity [1]: 77 percentage

SMILES: CC(=O)c1ccccc1C(=O)O [2-acetyl-benzoic acid]
- Relative Activity [1]: 4 percentage

SMILES: CC(=O)Nc1ccccc1C(=O)O [2-acetylamino-benzoic acid]
- Relative Activity [1]: 0 percentage

SMILES: COc1ccccc1C(=O)O [2-anisic acid]
- Relative Activity [1]: 3 percentage

SMILES: O=C(O)c1ccccc1C(=O)c1ccccc1 [2-benzoyl-benzoic acid]
- Relative Activity [1]: 0 percentage

SMILES: O=C(O)c1ccccc1Br [2-bromo-benzoic acid]
- Relative Activity [1]: 5 percentage

SMILES: O=C(O)c1ccccc1Cl [2-chloro-benzoic acid]
- Relative Activity [1]: 3 percentage

SMILES: O=C(O)c1ccccc1F [2-fluoro-benzoic acid]
- Relative Activity [1]: 57 percentage

SMILES: O=C(O)c1ccco1 [2-furoic acid]
- Relative Activity [1]: 18 percentage

SMILES: O=C(O)c1ccccc1O [2-hydroxyl-benzoic acid]
- Relative Activity [1]: 0 percentage

SMILES: O=C(O)c1ccc2ccccc2c1 [2-naphthoic acid]
- Relative Activity [1]: 95 percentage
- quality as substrate of the enzyme (in words) [1]: best substrates

SMILES: O=C(O)c1ccccc1[N+](=O)[O-] [2-nitro-benzoic acid]
- Relative Activity [1]: 0 percentage

SMILES: CC(C(=O)O)c1ccccc1 (stereo not drawn) [2-phenyl propionic acid]
- Relative Activity [1]: 16 percentage
- quality as substrate of the enzyme (in words) [1]: slower rates than benzoate

SMILES: O=C(O)c1ccccc1-c1ccccc1 [2-phenyl-benzoic acid]
- Relative Activity [1]: 16 percentage

SMILES: Cc1ccccc1C(=O)O [2-toluic acid]
- Relative Activity [1]: 6 percentage

SMILES: COc1cccc(C(=O)O)c1 [3-anisic acid]
- Relative Activity [1]: 87 percentage
- quality as substrate of the enzyme (in words) [1]: best substrates

SMILES: O=C(O)c1cccc(C(=O)c2ccccc2)c1 [3-benzoyl-benzoic acid]
- Relative Activity [1]: 53 percentage

SMILES: O=C(O)c1cccc(Br)c1 [3-bromo-benzoic acid]
- Relative Activity [1]: 105 percentage
- quality as substrate of the enzyme (in words) [1]: best substrates

SMILES: O=C(O)c1cccc(Cl)c1 [3-chloro-benzoic acid]
- Relative Activity [1]: 124 percentage
- quality as substrate of the enzyme (in words) [1]: best substrates

SMILES: O=C(O)c1cccc(F)c1 [3-fluoro-benzoic acid]
- Relative Activity [1]: 78 percentage

SMILES: O=C(O)c1ccoc1 [3-furoic acid]
- Relative Activity [1]: 22 percentage

SMILES: O=C(O)c1cccc(O)c1 [3-hydroxyl-benzoic acid]
- Relative Activity [1]: 77 percentage

SMILES: COc1cccc(C=CC(=O)O)c1 [3-methoxy-cinnamic acid]
- Relative Activity [1]: 8 percentage

SMILES: O=C(O)c1cccc([N+](=O)[O-])c1 [3-nitro-benzoic acid]
- Relative Activity [1]: 0 percentage

SMILES: Cc1cccc(C(=O)O)c1 [3-toluic acid]
- Relative Activity [1]: 4 percentage

SMILES: CC(=O)c1ccc(C(=O)O)cc1 [4-acetyl-benzoic acid]
- Relative Activity [1]: 20 percentage

SMILES: CC(=O)Nc1ccc(C(=O)O)cc1 [4-acetylamino-benzoic acid]
- Relative Activity [1]: 22 percentage

SMILES: COc1ccc(C(=O)O)cc1 [4-anisic acid]
- Relative Activity [1]: 36 percentage

SMILES: O=C(O)c1ccc(C(=O)c2ccccc2)cc1 [4-benzoyl-benzoic acid]
- Relative Activity [1]: 6 percentage

SMILES: O=C(O)c1ccc(Br)cc1 [4-bromo-benzoic acid]
- Relative Activity [1]: 72 percentage

SMILES: O=C(O)c1ccc(F)cc1 [4-fluoro-benzoic acid]
- Relative Activity [1]: 94 percentage
- quality as substrate of the enzyme (in words) [1]: best substrates

SMILES: O=C(O)c1ccc(O)cc1 [4-hydroxyl-benzoic acid]
- Relative Activity [1]: 6 percentage

SMILES: O=C(O)c1ccc([N+](=O)[O-])cc1 [4-nitro-benzoic acid]
- Relative Activity [1]: 0 percentage

SMILES: O=C(O)c1ccc(Oc2ccccc2)cc1 [4-phenoxy-benzoic acid]
- Relative Activity [1]: 11 percentage

SMILES: O=C(O)c1ccc(-c2ccccc2)cc1 [4-phenyl-benzoic acid]
- Relative Activity [1]: 21 percentage

SMILES: Cc1ccc(C(=O)O)cc1 [4-toluic acid]
- Relative Activity [1]: 82 percentage
- quality as substrate of the enzyme (in words) [1]: best substrates

SMILES: Nc1ncnc2c1ncn2[C@@H]1O[C@H](COP(=O)(O)OP(=O)(O)OP(=O)(O)O)[C@@H](O)[C@H]1O [ATP]
- apparent Km relative to Km reported for the enzyme from Nocardia asteroides [2]: more than 1000 fold

SMILES: NC(=O)C1=CN([C@@H]2O[C@H](COP(=O)(O)OP(=O)(O)OC[C@H]3O[C@@H](n4cnc5c(N)ncnc54)[C@H](OP(=O)(O)O)[C@@H]3O)[C@@H](O)[C@H]2O)C=CC1 [NADPH]
- apparent Km relative to Km reported for the enzyme from Nocardia asteroides [2]: more than 1000 fold

SMILES: CC(C)Cc1ccc([C@@H](C)C(=O)O)cc1 [R(-)-ibuprofen]
- turn-over number [2]: 21 min⁻¹
- Vmax ([2]; purified enzyme, listed as R(-) isomer): 1.33+0.02 μmol/min/mg of protein
- Vmax ([2]; purified enzyme, listed as R-(-)): 0.15 μmol/min/mg of protein

SMILES: CC(C)Cc1ccc([C@H](C)C(=O)O)cc1 [S(+)-ibuprofen, S(+)-α-Methyl-4-[2-methylpropyl]-benzeneacetic acid]
- turn-over number [2]: 186 min⁻¹
- Vmax ([2]; purified enzyme, listed as S(+) isomer): 0.148±0.003 μmol/min/mg of protein
- Vmax ([2]; purified enzyme, listed as S-(+)): 1.33 μmol/min/mg of protein

SMILES: Nc1ccccc1C(=O)O [anthranilic acid, 2-amino benzoic acid]
- Ki [2]: 261 ± 30 µM
- NADPH oxidation with the compound in place of benzoic acid ([2]; 5 mM in the enzyme assay solution): no NADPH oxidation was observed
- type of inhibition ([2]; listed as 2-amino benzoic acid): typical competitive inhibitor
- type of inhibition ([2]; listed as Anthranilic acid): competitive inhibitor

SMILES: O=Cc1ccccc1 [benzaldehyde]
- reduction of benzaldehyde to benzyl alcohol ([2]; purified enzyme): did not reduce

SMILES: O=C(O)c1cccc2c1Cc1ccccc1-2 [fluorene-1-carboxylic acid]
- Relative Activity [1]: 17 percentage

SMILES: O=C(O)c1cc2ccccc2[nH]1 [indole-2-carboxylic acid]
- Relative Activity [1]: 0 percentage

SMILES: O=C(O)c1c[nH]c2ccccc12 [indole-3-carboxylic acid]
- Relative Activity [1]: 2 percentage

SMILES: O=C(O)c1cccc2[nH]ccc12 [indole-4-carboxylic acid]
- Relative Activity [1]: 0 percentage

SMILES: O=C(O)c1ccc2[nH]ccc2c1 [indole-5-carboxylic acid]
- Relative Activity [1]: 10 percentage

SMILES: O=C(O)c1cccnc1 [nicotinic acid]
- Relative Activity [1]: 5 percentage
- quality as substrate of the enzyme (in words) [1]: slower rates than benzoate

SMILES: O=C(O)Cc1ccccc1 [phenyl acetic acid]
- Relative Activity [1]: 43 percentage
- quality as substrate of the enzyme (in words) [1]: slower rates than benzoate

SMILES: O=C(O)C(C(=O)O)c1ccccc1 [phenyl malonic acid]
- Relative Activity [1]: 3 percentage
- quality as substrate of the enzyme (in words) [1]: slower rates than benzoate

SMILES: O=C(O)CC(C(=O)O)c1ccccc1 (stereo not drawn) [phenyl succinic acid]
- Relative Activity [1]: 11 percentage
- quality as substrate of the enzyme (in words) [1]: slower rates than benzoate
